Where only a bound is given, the exact number is not on record here.

The subject of the assay is RKO p21 uninduced (proliferating) colon adenocarcinoma cells. Kind of assay: Alamar Blue cell viability assay, RKO p21 uninduced (proliferating). It is filed as cell-based. The note with it: Homo sapiens, Table B3, anti-proliferative/cytotoxic activity, 72 hours, read-out: −log EC50 RKO p21 uninduced (proliferating) (converted). The gist of the method: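 RKO p21 or p27 subclones grown without Ponasterone A, i.e. proliferating, exposed 24 h after seeding to semi-log compound dilutions in DMEM/10% FCS (1% DMSO controls) for 72 h at 37° C. Alamar Blue fluorescence (544/590 nm) read relative to untreated cells; EC50 from dose-response curves, given as −log EC50 (mol/l).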
The EC50 is the midpoint of the concentration-response curve. As for `CCOc1ccc2[nH]c3c(c2c1)C[C@@]1(C)C(=O)N(CCNC(C)(C)C)C(=O)N1[C@@H]3c1cccc(O)c1` (racemic) [Example 156, (3aSR,10RS)-2-(2-tert-Butylamino-ethyl)-6-ethoxy-10-(3-hydroxy-phenyl)-3a-methyl-3a,4,9,10-tetrahydro-2,9,10a-triaza-cyclopenta[b]fluorene-1,3-dione], the concentration giving a half-maximal response (EC50) was no more than 39.8 nM. For `COc1cc2c3c([nH]c2cc1F)[C@@H](c1cccc(O)c1)N1C(=O)N(CCN(C)C(C)C)C(=O)[C@]1(C)C3` (racemic) [Example 259, (3aSR,10RS)-7-Fluoro-10-(3-hydroyx-phenyl)-2-[2-(isopropyl-methyl-amino)-ethyl]-6-methoxy-3a-methyl-3a,4,9,10-tetrahydro-2,9,10a-triaza-cyclopenta[b]fluorene-1,3-dione] the value was 39.8 to 251 nM; for `COc1ccc2[nH]c3c(c2c1F)C[C@@]1(C)C(=O)N(CCNCC2CC2)C(=O)N1[C@@H]3c1cccc(O)c1` (racemic) [Example 410, (3aSR,10RS)-2-[2-(Cyclopropylmethyl-amino)-ethyl]-5-fluoro-10-(3-hydroxy-phenyl)-6-methoxy-3a-methyl-3a,4,9,10-tetrahydro-2,9,10a-triaza-cyclopenta[b]fluorene-1,3-dione], 39.8 to 251 nM. For `COc1cc2c3c([nH]c2cc1F)[C@@H](c1cccc(O)c1)N1C(=O)N(CCCN(C)C(C)C)C(=O)[C@]1(C)C3` (racemic) [Example 319, (3aSR,10RS)-7-Fluoro-10-(3-hydroxy-phenyl)-2-[3-(isopropyl-methyl-amino)-propyl]-6-methoxy-3a-methyl-3a,4,9,10-tetrahydro-2,9,10a-triaza-cyclopenta[b]fluorene-1,3-dione], the half-maximal effective concentration (EC50) was 39.8 to 251 nM. For `C[C@@]12Cc3c([nH]c4cc(F)c(Cl)cc34)[C@@H](c3cccc(O)c3)N1C(=O)N(CCCN1CC=CC1)C2=O` (racemic) [Example 477, (3aSR,10RS)-6-Chloro-2-[3-(2,5-dihydro-pyrrol-1-yl)-propyl]-7-fluoro-10-(3-hydroxy-phenyl)-3a-methyl-3a,4,9,10-tetrahydro-2,9,10a-triaza-cyclopenta[b]fluorene-1,3-dione] the value was 39.8 to 251 nM.

Consider `CCOc1ccc2[nH]c3c(c2c1)C[C@@]1(C)C(=O)N(CCCN(C)C)C(=O)N1[C@@H]3c1cccc(O)c1` (racemic) [Example 226, (3aSR,10RS)-2-(3-Dimethylamino-propyl)-6-ethoxy-10-(3-hydroxy-phenyl)-3a-methyl-3a,4,9,10-tetrahydro-2,9,10a-triaza-cyclopenta[b]fluorene-1,3-dione], for which the concentration for a half-maximal effect (EC50) was 39.8 to 251 nM.

Consider `COc1ccc2[nH]c3c(c2c1)C[C@@]1(C)C(=O)N(CCCNC2CC2)C(=O)N1[C@@H]3c1cccc(O)c1` [Example 537, (3aS,10R)-2-(3-Cyclopropylamino-propyl)-10-(3-hydroxy-phenyl)-6-methoxy-3a-methyl-3a,4,9,10-tetrahydro-2,9,10a-triaza-cyclopenta[b]fluorene-1,3-dione], for which the EC50 was no more than 39.8 nM.

As for `CCOc1ccc2[nH]c3c(c2c1)C[C@@]1(C)C(=O)N(CCN(C)CCO)C(=O)N1[C@@H]3c1cccc(O)c1` (racemic) [Example 297, (3aSR,10RS)-6-Ethoxy-2-{2-[(2-hydroxy-ethyl)-methyl-amino]-ethyl}-10-(3-hydroxy-phenyl)-3a-methyl-3a,4,9,10-tetrahydro-2,9,10a-triaza-cyclopenta[b]fluorene-1,3-dione], the 50% effective concentration (EC50) is 39.8 to 251 nM.

In the case of `C=CCN(C)CCCN1C(=O)N2[C@H](c3cccc(O)c3)c3[nH]c4cc(F)c(Cl)cc4c3C[C@@]2(C)C1=O` (racemic) [Example 472, (3aSR,10RS)-2-[3-(Allyl-methyl-amino)-propyl]-6-chloro-7-fluoro-10-(3-hydroyx-phenyl)-3a-methyl-3a,4,9,10-tetrahydro-2,9,10a-triaza-cyclopenta[b]fluorene-1,3-dione], the EC50 was 39.8 to 251 nM. In the case of `CC1CCN(CCCN2C(=O)N3[C@H](c4cccc(O)c4)c4[nH]c5cc(F)c(Cl)cc5c4C[C@@]3(C)C2=O)CC1` (racemic) [Example 479, (3aSR,10RS)-6-Chloro-7-fluoro-10-(3-hydroxy-phenyl)-3a-methyl-2-[3-(4-methyl-piperidin-1-yl)-propyl]-3a,4,9,10-tetrahydro-2,9,10a-triaza-cyclopenta[b]fluorene-1,3-dione], the 50% effective concentration (EC50) is 39.8 to 251 nM. Take `COc1cc2c3c([nH]c2cc1F)[C@@H](c1cccc(O)c1)N1C(=O)N(CCN2CCCC2)C(=O)[C@]1(C)C3` (racemic) [Example 261, (3aSR,10RS)-7-Fluoro-10-(3-hydroxy-phenyl)-6-methoxy-3a-methyl-2-(2-pyrrolidin-1-yl-ethyl)-3a,4,9,10-tetrahydro-2,9,10a-triaza-cyclopenta[b]fluorene-1,3-dione]: the EC50 was 39.8 to 251 nM. The value for `CCN(C)CCN1C(=O)N2[C@H](c3cccc(O)c3)c3[nH]c4cc(F)c(Cl)cc4c3C[C@@]2(C)C1=O` (racemic) [Example 347, (3aSR,10RS)-6-Chloro-2-[2-(ethyl-methyl-amino)-ethyl]-7-fluoro-10-(3-hydroxy-phenyl)-3a-methyl-3a,4,9,10-tetrahydro-2,9,10a-triaza-cyclopenta[b]fluorene-1,3-dione] was no more than 39.8 nM; that for `COc1cc2c3c([nH]c2cc1F)[C@@H](c1cccc(O)c1)N1C(=O)N(CCCNCC2CC2)C(=O)[C@]1(C)C3` (racemic) [Example 304, (3aSR,10RS)-2-[3-(Cyclopropylmethyl-amino)-propyl]-7-fluoro-10-(3-hydroyx-phenyl)-6-methoxy-3a-methyl-3a,4,9,10-tetrahydro-2,9,10a-triaza-cyclopenta[b]fluorene-1,3-dione] was 39.8 to 251 nM.

With `COCCNCCCN1C(=O)N2[C@H](c3cccc(O)c3)c3[nH]c4cc(F)c(OC)cc4c3C[C@@]2(C)C1=O` (racemic) [Example 306, (3aSR,10RS)-7-Fluoro-10-(3-hydroxy-phenyl)-6-methoxy-2-[3-(2-methoxy-ethylamino)-propyl]-3a-methyl-3a,4,9,10-tetrahydro-2,9,10a-triaza-cyclopenta[b]fluorene-1,3-dione], the EC50 was 39.8 to 251 nM. For `C[C@@]12Cc3c([nH]c4ccc(OC(F)F)cc34)[C@@H](c3cccc(O)c3)N1C(=O)N(CCCN1CC=CCC1)C2=O` (racemic) [Example 242, (3aSR,10RS)-6-(1,1-Difluoro-methoxy)-2-[3-(3,6-dihydro-2H-pyridin-1-yl)-propyl]-10-(3-hydroxy-phenyl)-3a-methyl-3a,4,9,10-tetrahydro-2,9,10a-triaza-cyclopenta[b]fluorene-1,3-dione] the value was no more than 39.8 nM; for `C#CCNCCCN1C(=O)N2[C@H](c3cccc(O)c3)c3[nH]c4cc(F)c(Cl)cc4c3C[C@@]2(C)C1=O` (racemic) [Example 466, (3aSR,10RS)-6-Chloro-7-fluoro-10-(3-hydroxy-phenyl)-3a-methyl-2-(3-prop-2-ynylamino-propyl)-3a,4,9,10-tetrahydro-2,9,10a-triaza-cyclopenta[b]fluorene-1,3-dione], 39.8 to 251 nM; for `C[C@@]12Cc3c([nH]c4ccc(OC(F)F)cc34)[C@@H](c3cccc(O)c3)N1C(=O)N(CCCNCCO)C2=O` (racemic) [Example 201, (3aSR,10RS)-6-(1,1-Difluoro-methoxy)-2-[3-(2-hydroxy-ethylamino)-propyl]-10-(3-hydroxy-phenyl)-3a-methyl-3a,4,9,10-tetrahydro-2,2,10a-triaza-cyclopenta[b]fluorene-1,3-dione], 39.8 to 251 nM.

For `C[C@@]12Cc3c([nH]c4ccc(Br)cc34)[C@@H](c3cccc(O)c3)N1C(=O)N(CCCNCCO)C2=O` (racemic) [Example 235, (3aSR,10RS)-6-Bromo-2-[3-(2-hydroxy-ethylamino)-propyl]-10-(3-hydroxy-phenyl)-3a-methyl-3a,4,9,10-tetrahydro-2,9,10a-triaza-cyclopenta[b]fluorene-1,3-dione], the EC50 is no more than 39.8 nM. With `CC(C)CNCCN1C(=O)N2[C@H](c3cccc(O)c3)c3[nH]c4cc(F)c(Cl)cc4c3C[C@@]2(C)C1=O` (racemic) [Example 340, (3aSR,10RS)-6-Chloro-7-fluoro-10-(3-hydroxy-phenyl)-2-(2-isobutylamino-ethyl)-3a-methyl-3a,4,9,10-tetrahydro-2,9,10a-triaza-cyclopenta[b]fluorene-1,3-dione], the half-maximal effective concentration (EC50) was 39.8 to 251 nM.

As to `COCCNCCN1C(=O)N2[C@H](c3cccc(O)c3)c3[nH]c4cc(F)c(Cl)cc4c3C[C@@]2(C)C1=O` (racemic) [Example 343, (3aSR,10RS)-6-Chloro-7-fluoro-10-(3-hydroxy-phenyl)-2-[2-(2-methoxy-ethylamino)-ethyl]-3a-methyl-3a,4,9,10-tetrahydro-2,9,10a-triaza-cyclopenta[b]fluorene-1,3-dione], the EC50 is no more than 39.8 nM.

`C[C@@]12Cc3c([nH]c4ccc(Br)cc34)[C@@H](c3cccc(O)c3)N1C(=O)N(CCCNC1CCC1)C2=O` (racemic) [Example 369, (3aSR,10RS)-6-Bromo-2-(3-cyclobutylamino-propyl)-10-(3-hydroxy-phenyl)-3a-methyl-3a,4,9,10-tetrahydro-2,9,10a-triaza-cyclopenta[b]fluorene-1,3-dione]: the concentration giving a half-maximal response (EC50) is no more than 39.8 nM. For the molecule `COc1ccc2[nH]c3c(c2c1)C[C@@]1(C)C(=O)N(CCCNC(C)(C)C)C(=O)N1[C@@H]3c1cccc(O)c1` [Example 538, (3aS,10R)-2-(3-tert-Butylamino-propyl)-10-(3-hydroxy-phenyl)-6-methoxy-3a-methyl-3a,4,9,10-tetrahydro-2,9,10a-triaza-cyclopenta[b]fluorene-1,3-dione], the half-maximal effective concentration (EC50) is no more than 39.8 nM. For `CCNCCCN1C(=O)N2[C@H](c3cccc(O)c3)c3[nH]c4ccc(OC(F)F)cc4c3C[C@@]2(C)C1=O` (racemic) [Example 204, (3aSR,10RS)-6-(1,1-Difluoro-methoxy)-2-(3-ethylamino-propyl)-10-(3-hydroxy-phenyl)-3a-methyl-3a,4,9,10-tetrahydro-2,9,10a-triaza-cyclopenta[b]fluorene-1,3-dione] the value was 39.8 to 251 nM.

The values are drawn from patent US8530493B2, “Indolopyridines as Eg5 kinesin modulators” (4SC AG, priority 2006, dated 2013).
